tested on: TNFα in lipopolysaccharide stimulated THP cells; experiment: Inhibition of TNF Production in THP Cells; type: cell-based; settings: LPS (1 μg/mL) stimulated THP.1 cells, 18-24 hr incubation, human TNFα by ELISA
Description: Inhibition of TNF Production in THP Cells
The inhibition of cytokine production can be observed by measuring inhibition of TNFα in lipopolysaccharide stimulated THP cells (for example, see W. Prichett et al., 1995, J. Inflammation, 45, 97). All cells and reagents were diluted in RPMI 1640 with phenol red and L-glutamine, supplemented with additional L-glutamine (total: 4 mM), penicillin and streptomycin (50 units/ml each) and fetal bovine serum (FBS, 3%) (GIBCO, all conc. final). Assay was performed under sterile conditions; only test compound preparation was nonsterile. Initial stock solutions were made in DMSO followed by dilution into RPMI 1640 2-fold higher than the desired final assay concentration. Confluent THP.1 cells (2×10^6 cells/mL, final conc.; […], Rockville, Md.) were added to 96 well polypropylene round bottomed culture plates (Costar 3790; sterile) containing 125 μL test compound (2 fold concentrated) or DMSO vehicle (controls, blanks). […] Cell mixture was allowed to preincubate for 30 min, 37° C., 5% CO2 prior to stimulation with lipopolysaccharide (LPS; 1 μg/mL final; Siga L-2630, from E. coli serotype 0111.B4; stored as 1 mg/mL stock in endotoxin screened distilled H2O at −80° C.). Blanks (unstimulated) received H2O vehicle; final incubation volume was 250 μl. Overnight incubation (18-24 hr) proceeded as described above. Assay was terminated by centrifuging plates 5 min, room temperature, 1600 rpm (400×g); supernatants were transferred to clean 96 well plates and stored −80° C. until analyzed for human TNFα by a commercially available ELISA kit (Biosource #KHC3015, Camarillo, Calif.). Data was analyzed by non-linear regression (Hill equation) to generate a dose response curve using SAS Software System (SAS institute, Inc., Cary, N.C.). The calculated IC50 value is the concentration of the test compound that caused a 50% decrease in the maximal TNFα production.

IC50, < 10 µM:
CC(C)(C)c1cc(Br)c(NCCN2CCOCC2)c(NC(=O)Nc2ccc(OCCN3CCOCC3)c3ccccc23)c1 [1-[3-Bromo-5-tert-butyl-2-(2-morpholin-4-yl-ethylamino)-phenyl]-3-[4-(2-morpholin-4-yl-ethoxy)-naphthalen-1-yl]-urea]
Cc1ccc(C(C)(C)C)cc1NC(=O)Nc1ccc(OCCN2CCOCC2)c2ccccc12 [1-[5-tert-butyl-2-methylphenyl]-3-[4-(2-morpholin-4-yl-ethoxy)-naphthalen-1-yl]-urea]
Cc1ccc(C(C)(C)C)cc1NC(=O)Nc1ccc(Oc2ccnc(N)c2)c2ccccc12 [1-(5-tert-Butyl-2-methylphenyl)-3-[4-(2-aminopyridin-4-yl-oxy)naphthalen-1-yl]urea]
Cc1ccc(C(C)(C)C)cc1NC(=O)Nc1ccc(Oc2cccnc2)c2ccccc12 [1-[5-tert-butyl-2-methylphenyl]-3-[4-(3-pyridinyloxy)-naphthalen-1-yl]-urea]
CC(C)(C)c1ccc(N2CCOCC2)c(NC(=O)Nc2ccc(OCCN3CCOCC3)c3ccccc23)c1 [1-(5-tert-Butyl-2-morpholin-4-yl-phenyl)-3-[4-(2-morpholin-4-yl-ethoxy)-naphthalen-1-yl]-urea]
COc1ccc(C(C)(C)C)cc1NC(=O)Nc1ccc(OCCN2CCOC(COc3ccccc3)C2)c2ccccc12 (stereo not shown) [1-[5-tert-butyl-2-methoxyphenyl]-3-[4-(2-(2-phenoxymethyl)morpholin-4-yl-ethoxy)-naphthalen-1-yl]-urea]
Cc1ccc(C(C)(C)C)cc1NC(=O)Nc1ccc(Oc2ccncc2)c2ccccc12 [1-[5-tert-butyl-2-methylphenyl]-3-[4-(4-pyridinyloxy)-naphthalen-1-yl]-urea]
